In data set [1] the target is T1, aryl hydrocarbon receptor (Homo sapiens, UniProt P35869).
T1 construct: HepG2 cells transiently transfected with the pGudLuc8.1 plasmid were thawed and 25,000 cells were plated per well; endogenous in cells; host or cells: HepG2
T1 sequence (P35869 11-848): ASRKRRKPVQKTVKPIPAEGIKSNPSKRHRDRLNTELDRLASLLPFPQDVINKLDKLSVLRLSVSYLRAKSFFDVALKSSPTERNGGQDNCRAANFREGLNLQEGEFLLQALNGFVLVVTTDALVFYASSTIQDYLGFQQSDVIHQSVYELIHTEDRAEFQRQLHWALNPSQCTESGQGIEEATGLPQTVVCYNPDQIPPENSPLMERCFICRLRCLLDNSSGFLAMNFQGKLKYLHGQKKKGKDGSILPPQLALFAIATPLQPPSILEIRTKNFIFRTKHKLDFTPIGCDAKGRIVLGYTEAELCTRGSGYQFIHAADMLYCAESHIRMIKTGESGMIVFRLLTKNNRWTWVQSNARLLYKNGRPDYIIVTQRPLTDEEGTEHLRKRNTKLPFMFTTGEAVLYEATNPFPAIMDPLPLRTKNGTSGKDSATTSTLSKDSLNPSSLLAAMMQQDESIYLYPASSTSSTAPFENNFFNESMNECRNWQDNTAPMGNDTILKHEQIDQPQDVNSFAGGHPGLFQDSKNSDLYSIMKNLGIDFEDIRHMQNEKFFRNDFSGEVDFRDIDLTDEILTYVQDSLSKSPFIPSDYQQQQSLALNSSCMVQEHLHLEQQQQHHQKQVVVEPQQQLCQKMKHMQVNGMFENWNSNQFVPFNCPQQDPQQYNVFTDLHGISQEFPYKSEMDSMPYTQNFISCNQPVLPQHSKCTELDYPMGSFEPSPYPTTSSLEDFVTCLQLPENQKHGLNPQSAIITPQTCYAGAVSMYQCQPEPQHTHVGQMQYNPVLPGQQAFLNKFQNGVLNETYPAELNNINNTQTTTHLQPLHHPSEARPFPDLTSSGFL
The data set is described as follows: Aryl hydrocarbon receptor-driven luciferase reporter in transiently transfected HepG2 cells (Example 3). In kind it is cell-based. As to conditions: absence (FIG. 1) or presence (FIG. 2) of agonist VAF347 (80 nM), luciferase six hours after plating. The protocol:
Experimental details for this experiment are reported in Example 3, below.
To determine the ability of compounds (5) and (16) to inhibit the activity of the aryl hydrocarbon receptor and to induce the proliferation of hematopoietic stem cells, a series of HSC expansion experiments were conducted. In the first experiment, compounds (5) and (16) were assessed for their capacity to attenuate aryl hydrocarbon receptor signaling. To this end, HepG2 hepatocytes were transiently transfected with a luciferase reporter construct under the control of a promoter responsive to aryl hydrocarbon receptor signal transduction. The cells were plated at a density of 25,000 cells per well in a microtiter plate. The HepG2 cells were immediately treated with compound (5) or (16) in the absence (FIG. 1) or presence (FIG. 2) of the aryl hydrocarbon receptor agonist, VAF347 (80 nM). Luciferase activity was subsequently analyzed six hours after plating.

The target in data set [2] is T2, aryl hydrocarbon receptor (AHR) (Homo sapiens, UniProt P35869).
T2 construct: HepG2 cells transiently transfected with the pGudLuc8.1 plasmid were thawed and 25,000 cells were plated per well; endogenous in cells; host or cells: HepG2
T2 sequence (P35869 11-848): T1 sequence (P35869 11-848)
The data set is described as follows: AHR antagonist assay: luciferase reporter in HepG2 cells transiently transfected with pGudLuc8.1. The class given is cell-based. The conditions noted are these: HepG2 cells, 25,000 cells per well, luciferase activity 24 hours post-culture. On the procedure:
To determine the activity of a scale-up batch of Compound (24), individual enantiomers, and two derivatives Compound (27) and Compound (28) were evaluated for AHR antagonist activity. The compounds were compared to control AHR antagonist SR1, an additional control AHR antagonist, and stored sample of Compound (24)
Methods—HepG2 cells transiently transfected with the pGudLuc8.1 plasmid were thawed and 25,000 cells were plated per well and immediately treated the AHR agonist VAF347 (fixed at 40 nM) and/or the indicated AHR antagonists. Luciferase activity was measured 24 hours post-culture, corresponding to endogenous AHR antagonist activity (without VAF347, FIG. 8) or in the presence of VAF347 (FIG. 9). All synthesized compounds show equivalent AHR antagonist activity if not greater than SR1.

pEC50: −log10 of the molar value. Like-named read-outs stand apart in the source and are kept apart here.

`CCC(C)c1cnc2c(NCCc3c[nH]c4ccccc34)cc(-c3cncc(F)c3)cn12` (stereo not shown) [Compound (5)]: the “suppression of aryl hydrocarbon receptor activity (luciferase)” value in data set [1] was “capable of suppressing aryl hydrocarbon receptor activity even in the presence of the activator VAF347”.
On the same count and under the same terms, the result for `CCC(C)c1cnc2c(NCCc3c[nH]c4ccccc34)nc(-c3cncc(F)c3)cn12` (stereo not shown) [Compound (16)] reads “capable of suppressing aryl hydrocarbon receptor activity even in the presence of the activator VAF347”.
Regarding `CC(C)n1cnc2c(NCCc3ccc(O)cc3)nc(-c3csc4ccccc34)nc21` [SR1], the negative-log EC50 (pEC50) in data set [2] (AHR agonist VAF347 fixed at 40 nM, read-out: AHR Antagonist Activity in the Presence of VAF347 EC50) is 6.71; in data set [2] (without VAF347, read-out: Endogenous AHR Antagonist Activity EC50), 7.48.

These data come from patent publication US20210379033A1, “METHODS OF TREATING CANCER WITH ARYL HYDROCARBON RECEPTOR ANTAGONISTS” (Magenta Therapeutics Inc., priority 2018, published 2021).
